Assay results: patent US20100069443A1, “COMPOUND WITH BENZAMIDE SKELETON HAVING CYCLOOXYGENASE-1 (COX-1)-SELECTIVE INHIBITORY ACTIVITY” (National University Corporation Okayama University, priority 2006, published 2010)
Where two headings read alike, the source gives them in different places.

Tests used:
[1] = test system: acetic acid-induced writhing responses; test: Acetic acid writhing test (analgesic testing); format: in vivo; details: mice; for Number of writhing responses: counted for 10 minutes, average; for Analgesic effect, suppression of the number of writhing responses (in words): oral administration
Experimental: Analgesic testing was carried out via common mice-based acetic acid writhing test. Compounds were administered orally in amounts of 30 mg/kg to groups each consisting of 10 or 11 mice, and a substance that applies pain stimuli, i.e., a 0.7% acetic acid solution, was intraperitoneally administered 30 minutes thereafter (0.1 ml/10 g). The counting of mice-specific writhing responses was initiated 10 minutes after the administration of the acetic acid solution, and the counting was continued for 10 minutes. This test utilizes the fact that a distinct symptom of agony, that is a writhing response, occurs upon administration of a stimulatory substance, such as an acetic acid solution, to a mouse. […] When compound 1 was administered in amounts of 30 mg/kg, however, the number of writhing responses was 5 on average. When compound 1 was administered in amounts of 10 mg/kg, the number of writhing responses was 10 on average. When compound 14 was administered in amounts of 30 mg/kg, the number of writhing responses was 6 on average.

[2] = test system: carrageenin-induced edema in footpads of hind paws; test: Carrageenin edema test (antiinflammatory testing); format: in vivo, rat; details: 30 mg/kg orally; 3 hours after administration of 1% carrageenin
Experimental: Antiinflammatory testing was carried out via a rat-based carrageenin edema test. Compounds were orally administered in amounts of 30 mg/kg to groups each consisting of 5 to 8 […], and an edema-inducing substance (a 1% carrageenin solution) was administered hypodermically to footpads of hind paws 1 hour later (0.1 ml/mouse). Edema thickness in the footpads of hind paws was measured 1, 2, and 3 hours thereafter.

gastric ulcer = test: Gastric ulcer formation; format: in vivo; details: 30 mg/kg orally, mice, 5 hours later
Experimental: Compound 1 was orally administered in amounts of 30 mg/kg to groups each consisting of 3 to 5 mice, mice were sacrificed with the use of ether 5 hours later, and the stomachs were extracted. The extracted stomachs were opened, each entire stomach was photographed using a stereoscopic microscope, and the lengths of the gastric ulcers were determined.

cyclooxygenase 2 (COX-2) = molecular target: T1, cyclooxygenase 2 (COX-2) (Ovis aries, UniProt P79208); test: Cayman Cyclooxygenase Inhibitor Screening Assay Kit (760111), COX-2; format: biochemical; details: for inhibition at 100 µM: read-out: Inhibitory activity of 100 μM compound (%) COX-2
T1 construct: purchased Cayman 760111
T1 sequence (P79208 17-603): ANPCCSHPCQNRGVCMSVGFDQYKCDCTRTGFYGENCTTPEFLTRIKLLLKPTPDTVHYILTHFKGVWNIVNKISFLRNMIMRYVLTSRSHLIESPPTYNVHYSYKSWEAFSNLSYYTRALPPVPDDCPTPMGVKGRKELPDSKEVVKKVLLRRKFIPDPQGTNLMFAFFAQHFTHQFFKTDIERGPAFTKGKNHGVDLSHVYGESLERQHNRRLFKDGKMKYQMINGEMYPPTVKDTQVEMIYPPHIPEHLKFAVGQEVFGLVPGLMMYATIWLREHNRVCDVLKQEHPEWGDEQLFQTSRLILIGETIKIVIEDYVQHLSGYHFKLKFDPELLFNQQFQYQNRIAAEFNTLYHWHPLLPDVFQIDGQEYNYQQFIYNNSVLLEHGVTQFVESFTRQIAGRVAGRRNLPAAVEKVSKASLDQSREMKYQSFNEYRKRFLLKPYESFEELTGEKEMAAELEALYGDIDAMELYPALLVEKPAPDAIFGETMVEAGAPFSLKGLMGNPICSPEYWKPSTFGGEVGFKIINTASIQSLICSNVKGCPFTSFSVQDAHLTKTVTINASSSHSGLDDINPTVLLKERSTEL

cyclooxygenase-1 (COX-1) = molecular target: T2, cyclooxygenase-1 (COX-1) (Ovis aries, UniProt P05979); test: Cayman Cyclooxygenase Inhibitor Screening Assay Kit (760111), COX-1; format: biochemical; details: for inhibition at 100 µM: read-out: Inhibitory activity of 100 μM compound (%) COX-1
T2 construct: purchased Cayman 760111
T2 sequence (P05979 25-600): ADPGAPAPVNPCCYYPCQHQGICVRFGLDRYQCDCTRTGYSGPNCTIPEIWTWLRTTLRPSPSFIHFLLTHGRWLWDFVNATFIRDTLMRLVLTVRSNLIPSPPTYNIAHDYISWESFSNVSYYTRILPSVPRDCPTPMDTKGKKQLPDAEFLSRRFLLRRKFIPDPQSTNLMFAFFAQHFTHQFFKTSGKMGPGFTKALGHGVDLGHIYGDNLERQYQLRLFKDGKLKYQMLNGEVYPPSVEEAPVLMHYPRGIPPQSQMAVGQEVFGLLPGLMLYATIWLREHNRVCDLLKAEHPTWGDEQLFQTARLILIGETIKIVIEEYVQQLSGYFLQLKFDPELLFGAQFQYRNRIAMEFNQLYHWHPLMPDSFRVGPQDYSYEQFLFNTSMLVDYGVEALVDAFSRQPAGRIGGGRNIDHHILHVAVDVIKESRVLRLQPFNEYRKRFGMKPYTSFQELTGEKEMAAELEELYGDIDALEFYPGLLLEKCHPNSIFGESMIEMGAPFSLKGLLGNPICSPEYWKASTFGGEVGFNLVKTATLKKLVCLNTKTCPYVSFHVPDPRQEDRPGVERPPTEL

[3] = 10 mg/kg orally, 0.7% acetic acid i.p.
[4] = 30 mg/kg orally, 0.7% acetic acid i.p. 30 minutes later

Question: For CC(=O)Oc1ccccc1C(=O)O [Aspirin, aspirin, reference compound], which “Number of writhing responses” value [1, 3] is on record?
Answer: 17

Question: What about the “Number of writhing responses” value [1, 4] of the same compound?
Answer: 15

Question: And the “Inhibitory activity against edema (%)” value [2]?
Answer: 16%

Question: And the “Gastric ulcer formation (in words)” value (gastric ulcer)?
Answer: significant gastric ulcers

Question: And the “Total length of gastric ulcer (mm)” value (gastric ulcer)?
Answer: 1.61 mm

Question: Which “Number of writhing responses” value [1, 3] does the source give for Nc1ccc(NC(=O)c2ccc(C(F)(F)F)cc2)nc1 [Compound 1] here?
Answer: 10

Question: What about the “Number of writhing responses” value [1, 4] of the same compound?
Answer: 5

Question: And the “Analgesic effect, suppression of the number of writhing responses (in words)” value [1]?
Answer: significantly suppresses

Question: What about the “Inhibitory activity against edema (%)” value [2] of the same compound?
Answer: 31%

Question: And the IC50 (cyclooxygenase 2 (COX-2))?
Answer: > 100 µM

Question: What about the inhibition at 100 µM (cyclooxygenase 2 (COX-2)) of the same compound?
Answer: 24%

Question: What about the Death of mice (1 g/kg intraperitoneally, 3 mice, observed for 10 days) of the same compound?
Answer: did not die

Question: What about the IC50 (cyclooxygenase-1 (COX-1)) of the same compound?
Answer: 1 µM

Question: What about the inhibition at 100 µM (cyclooxygenase-1 (COX-1)) of the same compound?
Answer: 98%

Question: And the “Gastric ulcer formation (in words)” value (gastric ulcer)?
Answer: not observed

Question: What about the “Total length of gastric ulcer (mm)” value (gastric ulcer) of the same compound?
Answer: 0.09 mm

Question: With Nc1ccc(C(=O)Nc2ccc(C(F)(F)F)cn2)cc1 [Compound 14] as the compound, how does the “Number of writhing responses” value [1, 4] read?
Answer: 6

Question: And the “Analgesic effect, suppression of the number of writhing responses (in words)” value [1]?
Answer: significantly suppresses

Question: What about the IC50 (cyclooxygenase 2 (COX-2)) of the same compound?
Answer: > 100 µM

Question: And the inhibition at 100 µM (cyclooxygenase 2 (COX-2))?
Answer: 15%

Question: What about the Death of mice (300 mg/kg intraperitoneally, 5 mice, observed for 14 days) of the same compound?
Answer: did not die

Question: And the IC50 (cyclooxygenase-1 (COX-1))?
Answer: 30 µM

Question: What about the inhibition at 100 µM (cyclooxygenase-1 (COX-1)) of the same compound?
Answer: 65%

Question: And the “Gastric ulcer formation (in words)” value (gastric ulcer)?
Answer: not observed

Question: What about the “Total length of gastric ulcer (mm)” value (gastric ulcer) of the same compound?
Answer: 0.01 mm
